Results: PubChem BioAssay (NCI)
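Cells were grown in 96-well plates and exposed to each compound for 48 hours at five concentrations; endpoints were interpolated linearly between bracketing concentrations, or set to the highest concentration if not reached. The concentration for 50% growth inhibition is given as GI50. Definition used: TGI = concentration required for complete inhibition of growth.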

Tests used:
Assay in all cases: NCI anticancer screen, dose series, 48 h
SF-539 CNS = tested on: SF-539 CNS
OVCAR-5 ovarian = tested on: OVCAR-5 ovarian
SF-295 CNS = tested on: SF-295 CNS
NCI-H23 lung = tested on: NCI-H23 lung
SK-MEL-2 melanoma = tested on: SK-MEL-2 melanoma
M14 melanoma = tested on: M14 melanoma
SN12C renal = tested on: SN12C renal
PC-3 prostate = tested on: PC-3 prostate
DU-145 prostate = tested on: DU-145 prostate
SNB-19 CNS = tested on: SNB-19 CNS
IGROV1 ovarian = tested on: IGROV1 ovarian
HS 578T breast = tested on: HS 578T breast
TK-10 renal = tested on: TK-10 renal
MDA-MB-231 breast = tested on: MDA-MB-231 breast
HCT-116 colon = tested on: HCT-116 colon
SW-620 colon = tested on: SW-620 colon
NCI/ADR-RES ovarian = tested on: NCI/ADR-RES ovarian
OVCAR-4 ovarian = tested on: OVCAR-4 ovarian
NCI-H522 lung = tested on: NCI-H522 lung
786-0 renal = tested on: 786-0 renal
ACHN renal = tested on: ACHN renal
KM12 colon = tested on: KM12 colon
HT29 colon = tested on: HT29 colon
COLO 205 colon = tested on: COLO 205 colon
MDA-MB-435 = tested on: MDA-MB-435
SK-OV-3 ovarian = tested on: SK-OV-3 ovarian
BT-549 breast = tested on: BT-549 breast
T-47D breast = tested on: T-47D breast
UACC-257 melanoma = tested on: UACC-257 melanoma
OVCAR-8 ovarian = tested on: OVCAR-8 ovarian
UO-31 renal = tested on: UO-31 renal
A549 NSCLC = tested on: A549 NSCLC
HCT-15 colon = tested on: HCT-15 colon
MCF7 breast = tested on: MCF7 breast
NCI-H226 lung = tested on: NCI-H226 lung
SK-MEL-5 melanoma = tested on: SK-MEL-5 melanoma
LOX IMVI melanoma = tested on: LOX IMVI melanoma
HOP-62 NSCLC = tested on: HOP-62 NSCLC
A498 renal = tested on: A498 renal
RXF 393 renal = tested on: RXF 393 renal
SNB-75 CNS = tested on: SNB-75 CNS
U251 CNS = tested on: U251 CNS
CAKI-1 renal = tested on: CAKI-1 renal
SK-MEL-28 melanoma = tested on: SK-MEL-28 melanoma
SF-268 CNS = tested on: SF-268 CNS
MALME-3M melanoma = tested on: MALME-3M melanoma
EKVX NSCLC = tested on: EKVX NSCLC
UACC-62 melanoma = tested on: UACC-62 melanoma
HOP-92 NSCLC = tested on: HOP-92 NSCLC
OVCAR-3 ovarian = tested on: OVCAR-3 ovarian
NCI-H460 lung = tested on: NCI-H460 lung
HCC-2998 colon = tested on: HCC-2998 colon

COCN1C(=O)[C@@H]2CCCN2C(=O)c2cc([N+](=O)[O-])ccc21
TGI (SF-539 CNS): > 100 µM | TGI (OVCAR-5 ovarian): > 100 µM | TGI (SF-295 CNS): > 100 µM | TGI (NCI-H23 lung): > 100 µM | TGI (SK-MEL-2 melanoma): > 100 µM | TGI (M14 melanoma): > 100 µM | TGI (SN12C renal): > 100 µM | TGI (PC-3 prostate): > 100 µM | TGI (DU-145 prostate): > 100 µM | TGI (SNB-19 CNS): > 100 µM | TGI (IGROV1 ovarian): > 100 µM | TGI (HS 578T breast): > 100 µM | TGI (TK-10 renal): > 100 µM | TGI (MDA-MB-231 breast): > 100 µM | TGI (HCT-116 colon): > 100 µM | TGI (SW-620 colon): > 100000 nM | TGI (NCI/ADR-RES ovarian): > 100 µM | TGI (OVCAR-4 ovarian): > 100 µM | TGI (NCI-H522 lung): 44.6 µM | TGI (786-0 renal): > 100 µM | TGI (ACHN renal): > 100000 nM | TGI (KM12 colon): > 100 µM | TGI (HT29 colon): > 100000 nM | TGI (COLO 205 colon): > 100 µM | TGI (MDA-MB-435): > 100000 nM | TGI (SK-OV-3 ovarian): > 100 µM | TGI (BT-549 breast): > 100 µM | TGI (T-47D breast): > 100 µM | TGI (UACC-257 melanoma): > 100 µM | TGI (OVCAR-8 ovarian): > 100 µM | TGI (UO-31 renal): > 100 µM | TGI (A549 NSCLC): > 100 µM | TGI (HCT-15 colon): > 100 µM | TGI (MCF7 breast): > 100 µM | TGI (NCI-H226 lung): > 100 µM | TGI (SK-MEL-5 melanoma): > 100 µM | TGI (LOX IMVI melanoma): > 100 µM | TGI (HOP-62 NSCLC): > 100 µM | TGI (A498 renal): > 100 µM | TGI (RXF 393 renal): 39.9 µM | TGI (SNB-75 CNS): > 100000 nM | TGI (U251 CNS): > 100 µM | TGI (CAKI-1 renal): > 100 µM | TGI (SK-MEL-28 melanoma): > 100 µM | TGI (SF-268 CNS): > 100 µM | TGI (MALME-3M melanoma): > 100000 nM | TGI (EKVX NSCLC): > 100 µM | TGI (UACC-62 melanoma): > 100 µM

COc1ccc(-c2ccc(-c3ccc(C(=N)N)cn3)s2)cc1Cl
GI50 (SF-539 CNS): 1640 nM | TGI (SF-539 CNS): 3.11 µM | GI50 (OVCAR-5 ovarian): 1550 nM | TGI (OVCAR-5 ovarian): 3.02 µM | GI50 (SF-295 CNS): 1720 nM | TGI (SF-295 CNS): 3.27 µM | GI50 (NCI-H23 lung): 1830 nM | TGI (NCI-H23 lung): 3.72 µM | GI50 (SK-MEL-2 melanoma): 2010 nM | TGI (SK-MEL-2 melanoma): 4.14 µM | GI50 (M14 melanoma): 1810 nM | TGI (M14 melanoma): 3.44 µM | GI50 (SN12C renal): 1690 nM | TGI (SN12C renal): 3.39 µM | GI50 (PC-3 prostate): 1770 nM | TGI (PC-3 prostate): 3.51 µM | GI50 (DU-145 prostate): 1690 nM | TGI (DU-145 prostate): 3.06 µM | GI50 (SNB-19 CNS): 1730 nM | TGI (SNB-19 CNS): 3.61 µM | GI50 (HOP-92 NSCLC): 1680 nM | TGI (HOP-92 NSCLC): 3.66 µM | GI50 (IGROV1 ovarian): 1570 nM | TGI (IGROV1 ovarian): 3.28 µM | GI50 (HS 578T breast): 1790 nM | TGI (HS 578T breast): 3.8 µM | GI50 (TK-10 renal): 1790 nM | TGI (TK-10 renal): 3.41 µM | GI50 (MDA-MB-231 breast): 1620 nM | TGI (MDA-MB-231 breast): 3.23 µM | GI50 (HCT-116 colon): 1840 nM | TGI (HCT-116 colon): 3.82 µM | GI50 (SW-620 colon): 1400 nM | TGI (SW-620 colon): 2730 nM | GI50 (NCI/ADR-RES ovarian): 1920 nM | TGI (NCI/ADR-RES ovarian): 3.84 µM | GI50 (OVCAR-4 ovarian): 1610 nM | TGI (OVCAR-4 ovarian): 3.3 µM | GI50 (NCI-H522 lung): 1950 nM | TGI (NCI-H522 lung): 4.46 µM | GI50 (786-0 renal): 1980 nM | TGI (786-0 renal): 4.03 µM | GI50 (ACHN renal): 1640 nM | TGI (ACHN renal): 3000 nM | GI50 (KM12 colon): 1650 nM | TGI (KM12 colon): 3.04 µM | GI50 (HT29 colon): 1180 nM | TGI (HT29 colon): 2870 nM | GI50 (COLO 205 colon): 1410 nM | TGI (COLO 205 colon): 3.15 µM | GI50 (MDA-MB-435): 1430 nM | TGI (MDA-MB-435): 2730 nM | GI50 (SK-OV-3 ovarian): 1650 nM | TGI (SK-OV-3 ovarian): 3.41 µM | GI50 (BT-549 breast): 1670 nM | TGI (BT-549 breast): 3.43 µM | GI50 (OVCAR-8 ovarian): 2090 nM | TGI (OVCAR-8 ovarian): 4.58 µM | GI50 (UO-31 renal): 1590 nM | TGI (UO-31 renal): 3.09 µM | GI50 (HCT-15 colon): 1620 nM | TGI (HCT-15 colon): 3.01 µM | GI50 (MCF7 breast): 1520 nM | TGI (MCF7 breast): 3.29 µM | GI50 (SK-MEL-5 melanoma): 1820 nM | TGI (SK-MEL-5 melanoma): 3.32 µM | GI50 (LOX IMVI melanoma): 1630 nM | TGI (LOX IMVI melanoma): 3.08 µM | GI50 (HOP-62 NSCLC): 1790 nM | TGI (HOP-62 NSCLC): 3.83 µM | GI50 (OVCAR-3 ovarian): 1830 nM | TGI (OVCAR-3 ovarian): 3.32 µM | GI50 (NCI-H460 lung): 1610 nM | TGI (NCI-H460 lung): 3.02 µM | GI50 (RXF 393 renal): 1980 nM | TGI (RXF 393 renal): 3.87 µM | GI50 (SNB-75 CNS): 1450 nM | TGI (SNB-75 CNS): 2850 nM | GI50 (CAKI-1 renal): 1650 nM | TGI (CAKI-1 renal): 3.03 µM | GI50 (HCC-2998 colon): 1890 nM | TGI (HCC-2998 colon): 3.69 µM | GI50 (SK-MEL-28 melanoma): 1720 nM | TGI (SK-MEL-28 melanoma): 3.35 µM | GI50 (SF-268 CNS): 1800 nM | TGI (SF-268 CNS): 3.43 µM | GI50 (MALME-3M melanoma): 1300 nM | TGI (MALME-3M melanoma): 2900 nM | GI50 (EKVX NSCLC): 1750 nM | TGI (EKVX NSCLC): 3.41 µM | GI50 (UACC-62 melanoma): 1880 nM | TGI (UACC-62 melanoma): 3.65 µM
